Article PMC7180452, “Purine and Purine Isostere Derivatives of Ferrocene: An Evaluation of ADME, Antitumor and Electrochemical Properties” (Molecules, 2020)
“Also recorded” adds a separate entry of the source. Like-named read-outs stand apart in the source and are kept apart here.

Columns and labels:
[1] = test system: hepatocellular carcinoma (HepG2); assay: In vitro antiproliferative activity, HepG2; format: cell-based, human; conditions: HepG2 cells
Procedure: (§1) Antiproliferative activity of compounds 11a−11c, 12a−12c, 13a−13c, 14a−14c, 15a−15c, 16a, 23a−23c, 24a−24c, 25a−25c, 34a−34c and 35a−35c was evaluated in vitro on four human tumor cell lines (American Type Culture Collection, Manassas, VA, USA): metastatic colorectal adenocarcinoma (SW620), ductal pancreatic adenocarcinoma (CFPAC-1), hepatocellular carcinoma (HepG2) and cervical carcinoma (HeLa) as well as normal skin fibroblasts (HFF).

[2] = test system: ductal pancreatic adenocarcinoma (CFPAC-1); assay: In vitro antiproliferative activity, CFPAC-1; format: cell-based, human; conditions: CFPAC-1 cells
Procedure: as §1

[3] = pH 7.4
Procedure: (§5) The distribution coefficient Chrom logD, a parameter used to assess the lipophilicity of compounds [36, 37], was determined for novel purine and purine isosteres with a ferrocene motif as shown in Table 1.
(§6) The distribution coefficient, Chrom logD, was determined from compounds’ gradient retention times by employing a high-performance liquid chromatography method with fast acetonitrile gradient. Compounds were prepared for analysis in final concentration of 1.25 mM by dilution of 10 mM stock solutions in DMSO with acetonitrile. Aqueous mobile phase was 50 mM ammonium acetate adjusted with ammonia solution to pH 7.4 and the organic mobile phase was acetonitrile. A reversed phase HPLC column Luna C18, 50 × 3 mm i.d., 5 µm particle size (Phenomenex, Torrance, CA, USA) was used for analysis. Sample injection volume was 2 µL and the flow rate was 1 mL min^−1. All compounds were analysed in duplicates. Fast-gradient elution was as follows: from 0 to 100% of acetonitrile (0−3 min), 100% of acetonitrile (3.0−3.5 min), from 100 to 0% of acetonitrile (3.5−3.7 min), and re-equilibration with 100% of aqueous mobile phase (3.7−5.0 min). All measurements were performed on an HPLC-DAD instrument Agilent 1100 Series (Agilent Technologies, Santa Clara, CA, USA) coupled with a mass spectrometer Micromass Quattro API (Waters, MA, USA). MassLynx software, version 4.1 (Waters, Manchester, UK) was used for data acquisition and processing. Before compound analysis, a calibration step was performed. A set of standard compounds with literature CHI values [36] were plotted against gradient retention times to obtain a calibration equation, which was used to determine CHI value from the compounds’ retention times.

[4] = test system: metastatic colorectal adenocarcinoma (SW620); assay: In vitro antiproliferative activity, SW620; format: cell-based, human; conditions: SW620 cells
Procedure: as §1

[5] = test system: normal skin fibroblasts (HFF); assay: Cytotoxicity on non-tumor cells, HFF; format: cell-based, human
Procedure: as §1

[6] = test system: cervical carcinoma (HeLa); assay: In vitro antiproliferative activity, HeLa; format: cell-based, human; conditions: HeLa cells
Procedure: as §1

[7] = Metabolic stability in mouse liver microsomes; format: in vitro ADME; conditions: for In Vivo CLh / In Vivo CLh (% LBF): mouse; for In Vivo CLh: predicted in vivo hepatic clearance; for In Vivo CLh (% LBF): predicted, % of liver blood flow; for t1/2: mouse liver microsomes, 1 µM
Procedure: (§2) Metabolic stability of compounds was assessed in human and mouse liver microsomes (Corning, Tewksbury, MA, USA). Compounds, in final concentration of 1 µM, were incubated in phosphate buffer (50 mM, pH 7.4) for 60 min at 37 °C together with liver microsomes and NADPH generating system (nicotinamide adenine dinucleotide phosphate (NADP, 0.5 mM), glucose-6-phosphate (G6P, 5 mM), glucose-6-phosphate dehydrogenase (1.5 U mL^−1) and magnesium chloride (0.5 mM)). Also, compounds were incubated without the presence of NADPH cofactor, as a buffer stability control. Metabolic activity of liver microsomes was verified by including testosterone and propranolol as positive controls, as well as caffeine as a negative control. Sampling was performed at six time points (0, 10, 20, 30, 45 and 60 min), followed by reaction termination by addition of acetonitrile/methanol mixture (2:1, v/v) containing dicofenac as internal standard. Samples were analyzed as previously described for samples from permeability assay. The in vitro half-life (t1/2) was calculated from the slope of the linear regression by plotting ln % remaining of parent compound against incubation time. In vitro intrinsic clearance, CLint was calculated from half-life using following Equation (3):(3) CLint [µL min^−1 mg^−1]=ln2/t1/2×mL per incubation/mg protein per incubation where 52.5 mg protein/g liver is used as a constant.
(§3) Predicted in vivo hepatic clearance, in vivo CLh was calculated as follows:(4) in vivo CLh [mL min^−1 kg^−1]=CLint×(mg protein/g liver)×Q×(LW/BW) /Q+(CLint×(mg protein/g liver)×(LW/BW)) where: LW/BW = liver weight/body weight [g kg^−1]; 25.7 (human), 87.5 (mouse); Q = LBF = liver blood flow [mL min^−1 kg^−1]; 21/1.26 (human), 131/7.86 (mouse).
(§4) Predicted in vivo hepatic clearance can be expressed as %LBF and calculated as follows:(5) in vivo CLh [%LBF]=in vivo CLh/LBF×100

[8] = Turbidimetric kinetic solubility assay; conditions: for Kinetic Solubility: PBS, 1% DMSO, 37 °C, 2 h, estimated range
Procedure: The turbidimetric solubility assay, which allows a rapid determination of the kinetic solubility of newly synthesized compounds using small amounts of their DMSO solutions, was used to assess the kinetic solubility [38].
The compounds’ DMSO stock solutions in concentration of 10 mM were serially diluted by factor 3.3×, 3×, 3.3× and 3× in DMSO. Prepared solutions were spiked into phosphate-buffered saline (PBS, 100 mM) to obtain final compounds’ concentrations of 100, 30, 10, 3 and 1 µM (3 µL of prepared dilutions were spiked to 297 µL of PBS, with final DMSO content of 1%, v/v). All compounds were tested in two replicas per concentration. Prepared solutions were incubated at 37 °C for 2 h with gentle shaking. Blank solutions were also prepared by spiking DMSO in PBS buffer (1% of DMSO, v/v). […] Compound/control samples are compared to the blank solution. […] Results were expressed as an estimated solubility range (lower and upper bound).

[9] = Metabolic stability in human liver microsomes; format: in vitro ADME; conditions: for t1/2: 1 µM; for In Vivo CLh / In Vivo CLh (% LBF): human; for In Vivo CLh: predicted in vivo hepatic clearance; for In Vivo CLh (% LBF): predicted, % of liver blood flow
Procedure: as §2, §3, §4

[10] = test system: MDCKII-hMDR1 cells; assay: Permeability and P-gp substrate assessment in MDCKII-hMDR1 cell monolayer; format: in vitro ADME, canine; conditions: for Permeability classification: MDCKII-hMDR1, in words; for Efflux Ratio (BA/AB) / Papp (AB) / Papp (BA): without P-gp inhibitor; for Papp (AB) / Papp (BA): 10 µM, 60 min
Procedure: The Madin-Darby canine kidney cells with overexpressed human multidrug-resistant gene (MDCKII-hMDR1) have been frequently used to study bidirectional transport of compounds and assess P-gp substrate potential. Apparent permeability (Papp) values were determined from the amount permeated through the MDCKII-hMDR1 cell monolayer in both the apical-basolateral (AB) and basolateral-apical (BA) direction.
MDCKII-hMDR1 cell monolayer was used for determination of permeability and P-gp substrate assessment. MDCKII-hMDR1 cells (Solvo Biotechnology, Szeged, Hungary) were grown in the controlled atmosphere (37 °C, 95% humidity, 5% CO2) in MDCK cell culture medium containing Dulbecco’s Modified Eagle Medium (DMEM) + 10% Fetal bovine serum (FBS, inactivated) + 1% glutamax-100 + 1% antibiotic/antimycotic + 1% of Non-essential amino acids Minimum Essential Medium (MEM NEAA). Cultures were split every 3–4 days using 0.05% Trypsin-EDTA. Cells were seeded 4 days prior to the experiment in concentration of 0.3 × 10^6 cells mL^−1 and cultured in CO2 incubator. On the experiment day, cell monolayers were washed with Dulbecco’s phosphate buffer saline (D-PBS) and equilibrated for 45 min in CO2 incubator in D-PBS containing 1% DMSO (1% v/v) with or without Elacridar (2 µM). Compounds, in final concentration of 10 µM, were prepared in transport medium containing Lucifer yellow (100 µM), with DMSO contentment of 1% (v/v) and in the presence and without Elacridar. Lucifer yellow calibration curve was prepared by serial dilution (12 points, with 100 µM as the highest point). Monolayer integrity was examined by fluorescent measurement on a Microplate reader Infinite F500 (Tecan) by using an excitation of 485 nm and emission of 530 nm. Experiment was started by applying the solutions containing test compounds to apical and basolateral side of the cell monolayer. Starting compound concentration (C0) was sampled at the start of the experiment and apical and basolateral compartments were sampled after incubation at 37 °C with gentle shaking for 60 min. Compound were tested in duplicate. Amprenavir was used as a control with low permeability and as a P-gp substrate without inhibitor presence, turning into a highly permeable compound with the inhibitor present.
Samples were analyzed on an ABSciex API 4000 Triple Quadrupole Mass Spectrometer (Sciex, Division of MDS Inc., Toronto, ON, Canada) coupled to a UHPLC Nexera X2 (Shimadzu, Kyoto, Japan). Samples (1 µL) were injected onto a reversed phase HPLC column Luna Omega Polar C18, 30 × 2.1 mm i.d., 1.6 µm particle size (Phenomenex) which was kept at 50 °C. Aqueous solution was 0.1% formic acid in deionized water and the organic mobile phase was […]. Flow rate was kept at 0.7 mL min^−1 for all measurements. Fast-gradient elution was as follows: 2% of organic mobile phase through 0.15 min, from 2 to 95% of organic mobile phase (0.15−0.7 min), 95% of organic mobile phase (0.7−1.1 min), from 95 to 2% of organic mobile phase (1.1−1.11 min), and re-equilibration with 98% of aqueous mobile phase (1.11−1.5 min). Positive ion mode with turbo spray, an ion source temperature of 550 °C and a dwell time of 75 ms were utilized for mass spectrometric detection. Quantitation was performed using multiple reaction monitoring (MRM) at the specific transition corresponding to the compound of interest. Warfarin was used as an internal standard. The ratios between compound and internal standard peak areas were used instead of real compound concentration. Apparent permeability coefficient, Papp (nm s^−1) values were calculated by using the following Equation (1):Papp [nm s^−1] = (dQ/dT) × (1/C0) × (1/A)(1) where: dQ/dT = permeability rate; C0 = initial concentration in donor compartment; A = surface area of the cell monolayer (0.7 cm^2). […]

[11] = Chrom logD determination (fast-gradient HPLC); conditions: pH 7.4
Procedure: as §5, §6

SMILES	IC50 [1]	IC50 [2]	Chrom logD [3]	IC50 [4]	IC50 [5]	IC50 [6]	In Vivo CLh [7]	In Vivo CLh (% LBF) [7]	Kinetic Solubility [8]	t1/2 ([9]; human liver microsomes)	In Vivo CLh [9]	In Vivo CLh (% LBF) [9]	Permeability classification [10]	Efflux Ratio (BA/AB) [10]	Papp (AB) [10]	Papp (BA) [10]	Chrom logD [11]	t1/2 [7]	Solubility classification ([8]; kinetic solubility, in words)	Metabolic stability classification ([9]; human liver microsomes, in words)
Ic1ccc2c(ccn2Cc2cn(-[c-]3cccc3)nn2)c1.[Fe+2].c1cc[cH-]c1 [Compound 25c, 5-Iodo-1-[1-(1-ferrocenyl-1,2,3-triazol-4-yl)methyl]-1H-indole]	71.8 ± 3.44 µM	> 100 µM	>6.57	> 100 µM	4.75 ± 1.7 µM	79.4 ± 1.82 µM														
[Fe+2].c1cc[cH-]c1.c1ccc2c(c1)ccn2Cc1cn(-[c-]2cccc2)nn1 [Compound 24c, 1-[1-(1-Ferrocenyl-1,2,3-triazol-4-yl)methyl]-1H-indole]	90.9 ± 11.5 µM	84.5 ± 15.8 µM	>6.57	> 100 µM	> 100 µM	88.1 ± 1.18 µM														
CC([c-]1cccc1)n1cc(Cn2ccc3c(Cl)ncnc32)nn1.[Fe+2].c1cc[cH-]c1 (centres unmarked) [Compound 11b, 4-Chloro-7-[1-(1-ferrocenyl-1-methylmethyl-1,2,3-triazol-4-yl)methyl]-7H-pyrrolo[2,3-d] pyrimidine]	34.5 ± 1.36 µM	31.3 ± 4.51 µM		32 ± 0.34 µM	8.88 ± 3.46 µM	31.4 ± 1.04 µM	1.54 L/h/kg	100 % LBF	3 to 10 µM	2.3 min	1.49 L/h/kg	97 % LBF	high permeability	1.5	118 nm/s	174 nm/s	5.94			
Clc1ncnc2ncn(Cc3cn(C[c-]4cccc4)nn3)c12.[Fe+2].c1cc[cH-]c1 [Compound 15a, 6-Chloro-7-[1-(1-ferrocenymethyl-1,2,3-triazol-4-yl)methyl]-7H-purine]	36 ± 1.81 µM	34.4 ± 0.43 µM		27.2 ± 5.3 µM	13.8 ± 4.17 µM	28.6 ± 8.28 µM	1.49 L/h/kg	97 % LBF	>100 µM	51.9 min	0.9 L/h/kg	58 % LBF	moderate AB permeability; also recorded: good permeability	7.0	48 nm/s	335 nm/s	3.82	8.8 min	high solubility	moderate stability
Clc1ncnc2c1ccn2Cc1cn(C[c-]2cccc2)nn1.[Fe+2].c1cc[cH-]c1 [Compound 11a, 4-Chloro-7-[1-(1-ferrocenymethyl-1,2,3-triazol-4-yl)methyl]-7H-pyrrolo[2,3-d]pyrimidine]	42 ± 5.93 µM	32.9 ± 2.46 µM		31.6 ± 0.84 µM	8.57 ± 1.95 µM	38.2 ± 2.3 µM		98 % LBF	<1 µM	7.8 min		90 % LBF	moderate to high AB permeability	2.2	84 nm/s	180 nm/s	5.62	4.4 min		
CC([c-]1cccc1)n1cc(Cn2ccc3cc(I)ccc32)nn1.[Fe+2].c1cc[cH-]c1 (centres unmarked) [Compound 25b, 5-Iodo-1-[1-(1-ferrocenyl-1-methylmethyl-1,2,3-triazol-4-yl)methyl]-1H-indole]	> 100 µM	> 100 µM	>6.57	> 100 µM	> 100 µM	> 100 µM														
[Fe+2].c1cc[cH-]c1.c1ccc2c(c1)ccn2Cc1cn(C[c-]2cccc2)nn1 [Compound 24a, 1-[1-(1-Ferrocenylmethyl-1,2,3-triazol-4-yl)methyl]-1H-indole]	53.6 ± 5.05 µM	78 ± 6.61 µM	>6.57	62 ± 8.79 µM	16.7 ± 8.61 µM	68.7 ± 2.91 µM														
Ic1ccc2c(ccn2Cc2cn(C[c-]3cccc3)nn2)c1.[Fe+2].c1cc[cH-]c1 [Compound 25a, 5-Iodo-1-[1-(1-ferrocenylmethyl-1,2,3-triazol-4-yl)methyl]-1H-indole]	> 100 µM	> 100 µM	>6.57	> 100 µM	> 100 µM	78.5 ± 9.36 µM														
CC([c-]1cccc1)n1cc(Cn2cnc3ccccc32)nn1.[Fe+2].c1cc[cH-]c1 (centres unmarked) [Compound 23b, 1-[1-(1-Ferrocenyl-1-methylmethyl-1,2,3-triazol-4-yl)methyl]-1H-benzimidazole]	83.6 ± 8.61 µM	68 ± 13.7 µM	4.84	> 100 µM	31.8 ± 9.81 µM	89.6 ± 13.7 µM														
CC([c-]1cccc1)n1cc(Cn2ccc3ccccc32)nn1.[Fe+2].c1cc[cH-]c1 (centres unmarked) [Compound 24b, 1-[1-(1-Ferrocenyl-1-methylmethyl-1,2,3-triazol-4-yl)methyl]-1H-indole]	> 100 µM	87.6 ± 1.79 µM	>6.57	> 100 µM	> 100 µM	89.6 ± 7.64 µM														
